Reference: patent EP0476120B1, “PROCESS FOR PREPARING EQUIMOLAR SALTS OF ASPARTIC ACID AND MAGNESIUM, MAGNESIUM ASPARTATE SALT OBTAINED BY SAID PROCESS AND ITS APPLICATIONS” (LA[…] SPINDLER, priority 1990, dated 1991)
Read-outs that look alike come from different tables or passages of the source.

Test system: souris
Conditions: mouse; for nombre de redressements, Total (moyenne): 3 min in cylinder
From the text: Les scores d'activité sont fonction de la surface à explorer. Ils sont également fonction de deux motivations contradictoires : la curiosité et la crainte. Il faut enfin savoir que lorsque la surface offerte permet une activité "horizontale" (marche) la curiosité parait l'emporter; par contre lorsque la surface est réduite et conduit à une activité "verticale" (redressements le long des parois d'un cylindre) il semble que la crainte anxieuse soit davantage présente et conduise à une activité soit diminuée, soit cyclique, et apparemment sans focalisation.
Ces études ont été réalisées chez des souris mâles, de souche NMRI-Han, réparties au hasard en lots de 15 souris (séries traitées) et 20 souris (série contrôle).
Au sortir de l'actimètre, les souris sont placées dans un cylindre en verre (hauteur 30 cm, diamètre 9 cm) L'exploration anxiogène a été mesurée par le nombre de redressements au cours de la première minute passée dans le cylindre, l'activité basale anxiogène étant considérée dans la même enceinte, entre 1 et 3 minutes.
Les doses ont été calculées selon une progression géométrique de base 700 (correspondant au 1/10 de la DL 50) et de raison 2, soit respectivement 175, 350, 700 et 1400 mg.kg⁻¹.
Les traitements sont réalisés 60 minutes avant le test.
Il est identique à celui décrit dans l'exemple précédent.
Les doses ont été calculées selon une progression géométrique de base 700 (correspondant au 1/10 de la DL 50) et de raison 2, soit respectivement 10,95; 21,9; 43,8; 87,5; 175; 350; 700 mg/kg. […] Les derniers traitements ont été réalisés 60 minutes avant le test.

[1] = repeated daily dosing (13 days), 10.95 mg/kg P.O., last dose 60 min before test
[2] = repeated daily dosing (13 days), 21.9 mg/kg P.O., last dose 60 min before test
[3] = repeated daily dosing (13 days), 43.8 mg/kg P.O., last dose 60 min before test
[4] = repeated daily dosing (13 days), 87.5 mg/kg P.O., last dose 60 min before test
[5] = repeated daily dosing (13 days), 175 mg/kg P.O., last dose 60 min before test
[6] = repeated daily dosing (13 days), 350 mg/kg P.O., last dose 60 min before test
[7] = repeated daily dosing (13 days), 700 mg/kg P.O., last dose 60 min before test
[8] = single dose 175 mg.kg⁻¹ P.O., 60 min before test
[9] = single dose 350 mg.kg⁻¹ P.O., 60 min before test
[10] = single dose 700 mg.kg⁻¹ P.O., 60 min before test
[11] = single dose 1400 mg.kg⁻¹ P.O., 60 min before test

α-β-aspartate de magnésium
nombre de redressements, 1ère minute (moyenne) [1]: 16 | nombre de redressements, 2ème minute (moyenne) [1]: 11 | nombre de redressements, 3ème minute (moyenne) [1]: 8 | nombre de redressements, Total (moyenne) [1]: 35 | nombre de redressements, 1ère minute (moyenne) [2]: 14 | nombre de redressements, 2ème minute (moyenne) [2]: 9 | nombre de redressements, 3ème minute (moyenne) [2]: 6 | nombre de redressements, Total (moyenne) [2]: 29 | nombre de redressements, 1ère minute (moyenne) [3]: 13 | nombre de redressements, 2ème minute (moyenne) [3]: 9 | nombre de redressements, 3ème minute (moyenne) [3]: 8 | nombre de redressements, Total (moyenne) [3]: 30 | nombre de redressements, 1ère minute (moyenne) [4]: 13 | nombre de redressements, 2ème minute (moyenne) [4]: 9 | nombre de redressements, 3ème minute (moyenne) [4]: 8 | nombre de redressements, Total (moyenne) [4]: 30 | nombre de redressements, 1ère minute (moyenne) [5]: 12 | nombre de redressements, 2ème minute (moyenne) [5]: 9 | nombre de redressements, 3ème minute (moyenne) [5]: 8 | nombre de redressements, Total (moyenne) [5]: 29 | nombre de redressements, 1ère minute (moyenne) [6]: 13 | nombre de redressements, 2ème minute (moyenne) [6]: 10 | nombre de redressements, 3ème minute (moyenne) [6]: 8 | nombre de redressements, Total (moyenne) [6]: 31 | nombre de redressements, 1ère minute (moyenne) [7]: 14 | nombre de redressements, 2ème minute (moyenne) [7]: 10 | nombre de redressements, 3ème minute (moyenne) [7]: 9 | nombre de redressements, Total (moyenne) [7]: 33 | nombre de redressements, 1ère minute (moyenne) [8]: 14 | nombre de redressements, 2ème minute (moyenne) [8]: 8 | nombre de redressements, 3ème minute (moyenne) [8]: 7 | nombre de redressements, Total (moyenne) [8]: 29 | nombre de redressements, 1ère minute (moyenne) [9]: 15 | nombre de redressements, 2ème minute (moyenne) [9]: 9 | nombre de redressements, 3ème minute (moyenne) [9]: 6 | nombre de redressements, Total (moyenne) [9]: 30 | nombre de redressements, 1ère minute (moyenne) [10]: 15 | nombre de redressements, 2ème minute (moyenne) [10]: augmente significativement | nombre de redressements, 3ème minute (moyenne) [10]: 7 | nombre de redressements, Total (moyenne) [10]: 32 | nombre de redressements, 2ème minute (moyenne) (single dose 700 mg.kg⁻¹ P.O., 60 min before test, listed as Mag): 10 | nombre de redressements, 1ère minute (moyenne) [11]: 15 | nombre de redressements, 2ème minute (moyenne) [11]: augmente significativement | nombre de redressements, 3ème minute (moyenne) [11]: 8 | nombre de redressements, Total (moyenne) [11]: 34 | nombre de redressements, 2ème minute (moyenne) (single dose 1400 mg.kg⁻¹ P.O., 60 min before test, listed as Mag): 11
